Tests used:
[1] = molar heat capacity at constant pressure; details: 101.33 kPa, Small sample (50 mg) DSC
[2] = 101.33 kPa, Crystal, X-ray diffraction

CC(C)(C)n1ncc2c(-c3ccccc3)n[nH]c(=O)c21
[1], Crystal
Details | molar heat capacity at constant pressure [J/K/mol]
273 K | 944.5
283 K | 1034.5
293 K | 1124.7
303 K | 1216.4
313 K | 1310.8
323 K | 1409.1
333 K | 1512.5
343 K | 1622.1
353 K | 1739.2
363 K | 1865
373 K | 2000.7
383 K | 2147.5
393 K | 2306.5
403 K | 2479
413 K | 2666.2
423 K | 2869.3

Details | mass density [kg/m3]
[2], 296 K | 1298

CC(C)(C)n1ncc2c(C(F)(F)F)n[nH]c(=O)c21
[1]
Details | molar heat capacity at constant pressure [J/K/mol]
273 K, Crystal | 174
283 K, Crystal | 202.9
293 K, Crystal | 231.9
303 K, Crystal | 260.8
313 K, Crystal | 289.8
323 K, Crystal | 318.7
333 K, Crystal | 347.6
343 K, Crystal | 376.6
353 K, Crystal | 405.5
363 K, Crystal | 434.4
373 K, Crystal | 463.4
383 K, Crystal | 492.3
393 K, Crystal | 521.2
403 K, Crystal | 550.2
413 K, Crystal | 579.1
423 K, Crystal | 608.1
448 K, Liquid | 813.3
458 K, Liquid | 923.4
463 K, Liquid | 978.4

Details | mass density [kg/m3]
[2], 293 K | 1451

Source: the NIST ThermoML archive (doi:10.1016/j.tca.2013.08.017)
